As usually defined, the IC50 is the concentration needed to halve the response being measured.

We go through 7 molecules from patent publication US20240368121A1, “ESTROGEN RECEPTOR DEGRADERS, PHARMACEUTICAL COMPOSITIONS THEREOF, AND THEIR THERAPEUTIC APPLICATIONS” (BioTheryX, Inc., priority 2021, published 2024).

What all share (type): cell-based
The target in one assay is T1, ERα (Homo sapiens, UniProt P03372).
T1 construct: degrading an ERα in MCF-7 cells via a western blot; endogenous in cells; host or cells: MCF-7
T1 sequence (P03372 1-595): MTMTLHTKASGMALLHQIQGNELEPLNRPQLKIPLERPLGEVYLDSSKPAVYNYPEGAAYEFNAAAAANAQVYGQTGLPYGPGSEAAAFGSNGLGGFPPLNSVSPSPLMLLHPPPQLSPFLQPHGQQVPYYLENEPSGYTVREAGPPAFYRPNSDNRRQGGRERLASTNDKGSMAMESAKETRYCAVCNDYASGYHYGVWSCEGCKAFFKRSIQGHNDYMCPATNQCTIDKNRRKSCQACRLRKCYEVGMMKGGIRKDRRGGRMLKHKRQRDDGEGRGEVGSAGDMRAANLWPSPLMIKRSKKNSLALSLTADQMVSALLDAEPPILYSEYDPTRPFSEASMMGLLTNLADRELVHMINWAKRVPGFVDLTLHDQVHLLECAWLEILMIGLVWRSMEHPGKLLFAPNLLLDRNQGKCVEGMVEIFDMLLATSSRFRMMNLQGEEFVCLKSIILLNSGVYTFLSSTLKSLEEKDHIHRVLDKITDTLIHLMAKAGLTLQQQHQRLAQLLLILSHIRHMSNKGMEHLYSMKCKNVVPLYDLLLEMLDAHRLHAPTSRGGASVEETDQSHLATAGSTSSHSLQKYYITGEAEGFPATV
The experiment in a line: Protein degradation assay: ERα in MCF-7 cells via western blot. The conditions noted are these: 6 h; for ERα Protein Degradation 1 nM: 1 nM compound; for ERα Protein Degradation 10 nM: 10 nM compound; for ERα Protein Degradation 100 nM: 100 nM compound. In a few lines: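 MCF-7 cells in MEM/10% FBS with insulin, seeded 300,000/well, treated 6 h at set concentrations (e.g., 1 nM–1 μM). Whole-cell lysates immunoblotted for ERα with GAPDH loading control, chemiluminescent detection; percentage degradation reported in binned categories (≥50%, 25–50%, 10–25%, <10%).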
A general note: In western blotting, separated proteins are transferred to a membrane and probed.

The test system of the next assay is MCF7 cells. The assay can be described thus: Cell viability assay ([…]-GLO, 6-day treatment). To be noted: Homo sapiens, MCF7, 144 h; MCF-7 cells, 6 days, CTG; read-out: Inhibition of Cancerous Cells IC50 MCF-7. An outline of the steps:
(§1)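 MCF7 (MEM) and T47D (RPMI with insulin), both with 10% FBS, at 1,000 cells/well, treated with a 10-point compound dose series for 6 days, with medium and compound refreshed once. Viability read by CellTiter-Glo luminescence.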

Another assay deals with T47D cells. The experiment in a line: Cell viability assay ([…]-GLO, 6-day treatment). The conditions noted are these: Homo sapiens, 144 h, 6 days, CTG, read-out: Inhibition of Cancerous Cells IC50 T47D. In a few lines:
as §1

With `O=C1CCC(N2Cc3c(csc3C3CCN(CCCCOc4ccc([C@@H]5c6ccc(O)cc6CC[C@@H]5c5ccccc5)cc4)CC3)C2=O)C(=O)N1` (stereo partly drawn) [Compound A19, 3-(1-(1-(4-(4-((1R,2S)-6-Hydroxy-2-phenyl-1,2,3,4-tetrahydronaphthalen-1-yl)-phenoxy)butyl)piperidin-4-yl)-4-oxo-4H-thieno[3,4-c]pyrrol-5(6H)-yl)piperidine-2,6-dione], on ERα, the “ERα Protein Degradation 1 nM” value is “D (a percentage degradation value of less than 10%)”, the “ERα Protein Degradation 10 nM” value is reported as “D (a percentage degradation value of less than 10%)” and the “ERα Protein Degradation 100 nM” value is reported as “D (a percentage degradation value of less than 10%)”. Besides, in the assay with MCF7 cells, the IC50 worked out at 2.2 nM. The IC50 in the assay on T47D cells was determined as 0.07 nM.
With `O=C1CCC(c2cccc(OCC(=O)N3CCN(CCCCOc4ccc([C@@H]5c6ccc(O)cc6CC[C@@H]5c5ccccc5)cc4)CC3)c2)C(=O)N1` (stereo partly drawn) [Compound B5, 3-(3-(2-(4-(4-(4-((1R,2S)-6-hydroxy-2-phenyl-1,2,3,4-tetrahydronaphthalen-1-yl)phenoxy)butyl)piperazin-1-yl)-2-oxoethoxy)phenyl)piperidine-2,6-dione], at ERα, the “ERα Protein Degradation 1 nM” value is reported as “D (a percentage degradation value of less than 10%)”, the “ERα Protein Degradation 10 nM” value is “D (a percentage degradation value of less than 10%)” and the “ERα Protein Degradation 100 nM” value is “D (a percentage degradation value of less than 10%)”. For the same molecule, the 50% inhibitory concentration (IC50) in the assay on MCF7 cells turned out to be 1.2 nM. Moreover, the IC50 with T47D cells came to 0.48 nM.
Consider `O=C1CCN(c2cccc(OCC(=O)N3CCN(CCCCOc4ccc([C@@H]5c6ccc(O)cc6CC[C@@H]5c5ccccc5)cc4)CC3)c2)C(=O)N1` [Compound B9, 1-(3-(2-(4-(4-(4-((1R,2S)-6-hydroxy-2-phenyl-1,2,3,4-tetrahydronaphthalen-1-yl)phenoxy)butyl)piperazin-1-yl)-2-oxoethoxy)phenyl)dihydropyrimidine-2,4(1H,3H)-dione], for which, on ERα, the “ERα Protein Degradation 1 nM” value is “D (a percentage degradation value of less than 10%)”, the “ERα Protein Degradation 10 nM” value was “D (a percentage degradation value of less than 10%)” and the “ERα Protein Degradation 100 nM” value was “D (a percentage degradation value of less than 10%)”. For the same molecule, the IC50 in the assay with MCF7 cells was determined as 1.7 nM. Besides, the 50% inhibitory concentration (IC50) in the assay with T47D cells turned out to be 0.49 nM.
`O=C1CC[C@@H](N2Cc3cc(N4CCN(CC5CCN(c6ccc(C7c8ccc(O)cc8CC[C@@H]7c7ccccc7)cc6)CC5)CC4)ccc3C2=O)C(=O)N1` (stereo in doubt) [Compound A15, (R)-3-(5-(4-((1-(4-((1R,2S)-6-Hydroxy-2-phenyl-1,2,3,4-tetrahydronaphthalen-1-yl)phenyl)piperidin-4-yl)methyl)piperazin-1-yl)-1-oxoisoindolin-2-yl)piperidine-2,6-dione]: at ERα, the “ERα Protein Degradation 1 nM” value was “D (a percentage degradation value of less than 10%)”; the “ERα Protein Degradation 10 nM” value is “C (a percentage degradation value of less than 25% and no less than 10%)”; the “ERα Protein Degradation 100 nM” value is recorded as “D (a percentage degradation value of less than 10%)”. In addition, the IC50 in the assay on MCF7 cells is 1.2 nM. The half-maximal inhibitory concentration (IC50) in the assay with T47D cells was determined as 0.96 nM.
On to `O=C1CCN(c2ccc(OCC(=O)N3CCN(CCCCOc4ccc([C@@H]5c6ccc(O)cc6CC[C@@H]5c5ccccc5)cc4)CC3)cc2)C(=O)N1` [Compound B10, 1-(4-(2-(4-(4-(4-((1R,2S)-6-hydroxy-2-phenyl-1,2,3,4-tetrahydronaphthalen-1-yl)phenoxy)butyl)piperazin-1-yl)-2-oxoethoxy)phenyl)dihydropyrimidine-2,4(1H,3H)-dione], for which, at ERα, the “ERα Protein Degradation 1 nM” value is given as “D (a percentage degradation value of less than 10%)”, the “ERα Protein Degradation 10 nM” value is “D (a percentage degradation value of less than 10%)” and the “ERα Protein Degradation 100 nM” value is “D (a percentage degradation value of less than 10%)”. For the same molecule, the half-maximal inhibitory concentration (IC50) with MCF7 cells is 1.6 nM. In the assay with T47D cells, the concentration for half-maximal inhibition (IC50) came to 0.76 nM.
Regarding `CC1(Cc2ccc(OCCCCN3CCN(C(=O)COc4cccc(C5CCC(=O)NC5=O)c4)CC3)cc2)C(c2ccc(O)cc2)=Nc2ccc(O)cc21` (centres unmarked) [Compound D7, 3-(3-(2-(4-(4-(4-((5-Hydroxy-2-(4-hydroxyphenyl)-3-methyl-3H-indol-3-yl)-methyl)phenoxy)butyl)piperazin-1-yl)-2-oxoethoxy)phenyl)piperidine-2,6-dione], at ERα, the “ERα Protein Degradation 1 nM” value is listed as “D (a percentage degradation value of less than 10%)”, the “ERα Protein Degradation 10 nM” value is recorded as “D (a percentage degradation value of less than 10%)” and the “ERα Protein Degradation 100 nM” value is “D (a percentage degradation value of less than 10%)”. Moreover, the IC50 with MCF7 cells came out at 101 nM. For the same molecule, the concentration for half-maximal inhibition (IC50) with T47D cells was determined as 44 nM.
Take `Cc1c(-c2ccc(O)cc2)n(Cc2ccc(OCCCCN3CCN(C(=O)COc4cccc5c(C6CCC(=O)NC6=O)nn(C)c45)CC3)cc2)c2ccc(O)cc12` (centres unmarked) [Compound E7, 3-(7-(2-(4-(4-(4-((5-Hydroxy-2-(4-hydroxyphenyl)-3-methyl-1H-indol-1-yl)-methyl)phenoxy)butyl)piperazin-1-yl)-2-oxoethoxy)-1-methyl-1H-indazol-3-yl)piperidine-2,6-dione]: at ERα, the “ERα Protein Degradation 1 nM” value is “B (a percentage degradation value of less than 50% and no less than 25%)”; the “ERα Protein Degradation 10 nM” value is reported as “A (a percentage degradation value of no less than 50%)”; the “ERα Protein Degradation 100 nM” value is recorded as “A (a percentage degradation value of no less than 50%)”. Further, the IC50 with MCF7 cells was found to be 1.1 nM. Moreover, the IC50 with T47D cells stood at 0.64 nM.
